{
  "source": "patent US4772691A",
  "about": "“Chemically cleavable nucleotides” (The Medical College of Wisconsin, Inc., priority 1985, dated 1988)",
  "key": {"[1]": {"experiment": "HPLC of Bio-SS-dUTP in presence of 2-mercaptoethanol (disulfide cleavage)", "assay_type": "physicochemical", "settings": "5 mM 2-mercaptoethanol immediately before HPLC", "protocol": "It was not necessary to further purify the AA-dUTP by HPLC at this stage in the synthesis. Instead, 2.0 μmol of AA-dUTP in 200 μl of 0.1 M sodium borate (pH 8.5) was added directly to 2.0 μmol of sulfo-NHS-SS-biotin. The reaction was allowed to proceed at room temperature for 1 to 2 hr. The resulting Bio-SS-dUTP was purified by ion-pair reversed-phase HPLC using a Bio-Sil ODS-5S column (250×4 mm; Bio-Rad). Aliquots of the reaction (100 μl) were adjusted to 50 mM Et3 NHCO3 (pH 7.5) and 10% acetonitrile, diluted to 500 μl with the same buffer, and applied to the column at a flow rate of 0.5 ml/min (1600 psi). Bio-SS-dUTP was eluted isocratically with 50 mM Et3 NHCO3 (pH 7.5) and 10% acetonitrile. Column fractions containing Bio-SS-dUTP were pooled, rotary evaporated, resuspended in 10 mM Tris HCl (pH 7.5); and stored at -80° C. From 2.0 μmol of AA-dUTP, 1.0-1.6 μmol of Bio-SS-dUTP can be obtained by this procedure.\nAn identical aliquot of the Bio-SS-dUTP reaction was supplemented with 2-mercaptoethanol to a final concentration of 5 mM immediately prior to its application and chromatography on HPLC. […] Instead, there was a corresponding increase in the material eluting from the column with the solvent breakthrough (3.3 min). […]"}, "[2]": {"target": "E. coli DNA polymerase I (Escherichia coli, UniProt P00582)", "sequence (P00582 whole entry, the tested form may be a part)": "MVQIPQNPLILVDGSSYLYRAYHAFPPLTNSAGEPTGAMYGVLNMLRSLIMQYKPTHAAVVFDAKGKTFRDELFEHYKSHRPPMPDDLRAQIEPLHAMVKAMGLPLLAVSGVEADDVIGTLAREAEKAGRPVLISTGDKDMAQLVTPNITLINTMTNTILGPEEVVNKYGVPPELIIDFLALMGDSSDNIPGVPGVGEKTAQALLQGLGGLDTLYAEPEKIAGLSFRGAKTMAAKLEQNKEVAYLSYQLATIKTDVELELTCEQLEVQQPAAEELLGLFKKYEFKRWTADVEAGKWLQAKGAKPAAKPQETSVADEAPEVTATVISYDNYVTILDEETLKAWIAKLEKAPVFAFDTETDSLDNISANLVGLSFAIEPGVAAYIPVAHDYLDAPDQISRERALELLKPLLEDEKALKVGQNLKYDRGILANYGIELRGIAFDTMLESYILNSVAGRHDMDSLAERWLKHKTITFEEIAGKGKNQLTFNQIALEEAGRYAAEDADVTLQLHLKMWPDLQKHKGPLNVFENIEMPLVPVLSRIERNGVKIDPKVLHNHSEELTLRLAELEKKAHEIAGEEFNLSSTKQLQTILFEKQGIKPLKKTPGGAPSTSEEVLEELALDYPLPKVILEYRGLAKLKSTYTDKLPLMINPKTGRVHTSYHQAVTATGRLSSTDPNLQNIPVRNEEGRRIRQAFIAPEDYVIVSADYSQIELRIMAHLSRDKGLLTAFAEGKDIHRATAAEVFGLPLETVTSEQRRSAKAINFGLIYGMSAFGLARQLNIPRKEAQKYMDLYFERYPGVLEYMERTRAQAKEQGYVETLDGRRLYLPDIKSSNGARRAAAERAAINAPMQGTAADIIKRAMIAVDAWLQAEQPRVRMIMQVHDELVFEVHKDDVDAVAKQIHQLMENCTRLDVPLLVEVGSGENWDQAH", "experiment": "nick-translation reaction, incorporation of [32P]dCTP into 145-bp DNA", "assay_type": "biochemical", "settings": "for rate of nick-translation reaction relative to TTP: 20 μM nucleotide, relative to equal concentration of TTP", "protocol": "Nick-Translation Reactions. Nucleosome length DNA fragments [145 base pairs (bp)]were purified from monomer nucleosomes prepared by micrococcal nuclease digestion of chicken erythrocyte nuclei followed by fractionation on an agarose A-5m column (2). Four microgram aliquots of 145-bp DNA fragments in 0.1 ml of 50 mM Tris-HCl, pH 7.5/5 mM MgCl2 /50 μg of bovine serum albumin per ml were nicktranslated (3) in the presence of 20 μM dATP and dGTP, 20 μM [^32 P]dCTP (2-5 μCi/nmol; 1 Ci =37 GBq), and either dTTP, Bio-4-dUTP, or Bio-SS-dUTP as indicated. 2-Mercaptoethanol was eliminated from the nick-translation buffer to preserve the Bio-SS-dUTP. DNase I (0.01 ng per 0.1 ml of reaction mixture) was added to the reaction, which was then incubated for 5 min at 15° C. prior to the addition of E. coli DNA polymerase I (4 units per 0.1 ml of reaction mixture).\nBio-SS-dUTP Is a Substrate for E. coli DNA Polymerase. To determine whether Bio-SS-dUTP could serve as a substrate for E. coli DNA polymerase I, its incorporation into DNA in a nick-translation reaction was measured. The incorporation of [^32 P ]dCTP into purified nucleosome-length DNA fragments (145 bp) in the presence of 20 μM dATP, dGTP, dCTP, and either the normal nucleotide, TTP, or one of three biotinylated nucleotide analogs was measured. Bio-SS-dUTP was capable of supporting the nick-translation reaction at 35%-40% the rate observed with an equal concentration of TTP. […] If no TTP is present with the biotinylated nucleotides in the nick-translation reaction, the newly synthesized DNA is very heavily biotinylated. To reduce this level of modification, the nick-translation reactions can be performed in the presence of μM/10TTP/10 μM Bio-SS-dUTP."}, "[3]": {"test_system": "avidin", "settings": "compared with avidin-biotin; cited from earlier work"}},
  "data": [
    {"smiles": "O=C(CCSSCCNC(=O)CCCC[C@@H]1SC[C@@H]2NC(=O)N[C@@H]21)NCC=Cc1cn([C@H]2C[C@H](O)[C@@H](COP(=O)(O)OP(=O)(O)OP(=O)(O)O)O2)c(=O)[nH]c1=O", "note": "[Bio-SS-dUTP]", "values": [
      {"measurement": "intact compound after 2-mercaptoethanol (HPLC)", "setting": "[1]", "result": "no UV-absorbing material eluted from the column with the retention time expected for intact Bio-SS-dUTP"},
      {"measurement": "rate of nick-translation reaction in mixture with TTP", "setting": "[2]; 10 μM TTP/10 μM Bio-SS-dUTP versus 20 μM TTP alone", "result": "only slightly slower"},
      {"measurement": "rate of nick-translation reaction relative to TTP", "setting": "[2]", "result": "35%-40%"},
      {"measurement": "residues incorporated per nucleosome-length fragment", "setting": "[2]; nick-translated with equal concentrations of TTP and Bio-SS-dUTP", "result": "2-5 residues per nucleosome-length fragment"},
      {"measurement": "substrate for E. coli DNA polymerase", "setting": "[2]; nick-translation", "result": "good substrate"}
    ]},
    {"smiles": "O=C(CCCC[C@@H]1SC[C@@H]2NC(=O)N[C@@H]21)NCC=Cc1cn([C@H]2C[C@H](O)[C@@H](COP(=O)(O)OP(=O)(O)OP(=O)(O)O)O2)c(=O)[nH]c1=O", "note": "[Bio-4-dUTP, reference compound]", "values": [
      {"measurement": "rate of nick-translation reaction relative to TTP", "setting": "[2]", "result": 60, "unit": "%"}
    ]},
    {"smiles": "N=C1N[C@H]2[C@H](CS[C@H]2CCCCC(=O)O)N1", "note": "[2-iminobiotin]", "values": [
      {"measurement": "strength of avidin-iminobiotin interaction", "setting": "[3]", "result": "not nearly as strong as that of avidin-biotin"}
    ]}
  ]
}
